Assay results as given in patent publication US20060211887A1, “Phosphate salts of 6-dimethylaminomethyl-1-(3-methoxyphenyl)-1,3-dihydroxy-cyclohexane compounds” (priority 2005, published 2006).
“Also recorded” adds a separate entry of the source.

Key:
[1] = Drying of form B of the phosphate salt in vacuo, physical form checked by X-ray powder diffractometry, thermal analysis and 1H NMR; type: physicochemical
Description: The form B was dried for 13 hours at 40° C. in vacuo.
The form B was dried for 24 hours at 40° C. in vacuo.
Form B was dried at 68° C. in a drying cabinet in vacuo for 3 days.

[2] = Storage at defined relative atmospheric humidity (approx. 75% or 95%, then approx. 4%) with thermogravimetric analysis, weighing and X-ray powder diffractometry; type: physicochemical; conditions: for % pt (middle) / % pt after / % pt during: vs before storage; for Form middle / Form after / Form during: X-ray powder diffractometry; for Laboratory after: storage step approx. 4 (±5) % r.h. approx. 20 h; for Laboratory during %: storage step approx. 75 (±5) % r.h. approx. 7 days; for Laboratory during: storage step approx. 95 (±5) % r.h. approx. 7 days
Text: Storage of the hydrochloride salts, which are not according to the invention (identified H1 to H3 in the following examples of compounds; for the synthesis see the subsequent experimental part), at room temperature over saturated sodium chloride solution results in a relative atmospheric humidity of approx. 75% (±5%). Storage of the samples at room temperature over saturated potassium sulfate solution results in a relative atmospheric humidity of approx. 95% (±5%).
Storage of the samples at room temperature over drying beads (blau+, Engelhardt, Nienburg) results in a relative atmospheric humidity of approx. 4% (±5%).
The samples were stored at approx. 75% relative atmospheric humidity for approx. 8.5 days. The samples were then stored at a relative atmospheric humidity of approx. 4% for a further approx. 6 h.
They were analyzed for their loss in weight by means of thermogravimetric analyses (amount of sample approx. 5-20 mg, heating rate approx. 10 K/min, heating range from approx. 25° C. to approx. 240° C.).
The approximate difference in the moisture content (in percentage points; % pt) from after the storage to before the particular storage step is stated.
In addition, the percentage change in the total weight of the sample occurring in the respective storage step was determined by weighing (“laboratory”).
The crystalline form was determined by means of X-ray powder diffractometry.
The samples were stored at approx. 95% relative atmospheric humidity for approx. 8.5 days. The samples were then stored at a relative atmospheric humidity of approx. 4% for a further approx. 6 h.
The approximate difference in the moisture content (in percentage points; % pt) from after the storage to before the storage is stated.
The samples were stored at approx. 75% relative atmospheric humidity for approx. 7 days. The samples were then stored at a relative atmospheric humidity of approx. 4% for a further approx. 2.5 days.
The approximate difference in the moisture content (in percentage points; % pt) from after the storage step to before the storage is stated.
The samples were stored at approx. 95% relative atmospheric humidity for approx. 7 days. The samples were then stored at a relative atmospheric humidity of approx. 4% for a further approx. 7 days.
Storage of the phosphate salts I-P according to the invention, called samples in the following, at room temperature over saturated sodium chloride solution results in a relative atmospheric humidity of approx. 75 (±5) % . Storage of the samples at room temperature over saturated potassium sulfate solution results in a relative atmospheric humidity of approx. 95 (±5) %.
Storage of the samples at room temperature over drying beads (blau+, Engelhardt, Nienburg) results in a relative atmospheric humidity of approx. 4 (±5) %.
The samples were stored at approx. 75 (±5) % relative atmospheric humidity for approx. 8.5 days. The samples were then stored at a relative atmospheric humidity of approx. 4 (±5) % for a further approx. 6 h.
The samples were stored at approx. 95 (±5) % relative atmospheric humidity for approx. 8.5 days. The samples were then stored at a relative atmospheric humidity of approx. 4 (±5) % for a further approx. 6 h.
The samples were stored at approx. 75 (±5) % relative atmospheric humidity for approx. 7 days. The samples were then stored at a relative atmospheric humidity of approx. 4 (±5) % for a further approx. 20 h.
The samples were stored at approx. 95 (±5) % relative atmospheric humidity for approx. 7 days. The samples were then stored at a relative atmospheric humidity of approx. 4 (±5) % for a further approx. 20 h.
Sample P3 was kept in the laboratory for approx. 55 minutes under ambient conditions before the second storage step.
The interpretation of the specified data is explained again in more detail by the example of the data for P1 given in the preceding Table 8:
Storage of 1: • first storage step: 95% atmospheric humidity • second storage step: 4% atmospheric humidity […]

[3] = after approx. 75% r.h. approx. 7 days
[4] = after approx. 95% r.h. approx. 7 days
[5] = approx. 75% r.h. approx. 7 days, then approx. 4% approx. 2.5 days
[6] = approx. 75% r.h. approx. 8.5 days, then approx. 4% approx. 6 h
[7] = approx. 75% relative atmospheric humidity approx. 8.5 days, then approx. 4% approx. 6 h
[8] = approx. 95% r.h. approx. 7 days, then approx. 4% approx. 7 days
[9] = approx. 95% r.h. approx. 8.5 days, then approx. 4% approx. 6 h
[10] = storage step approx. 4% r.h. approx. 2.5 days, after 75% r.h. 7 days
[11] = storage step approx. 4% r.h. approx. 7 days, after 95% r.h. 7 days
[12] = storage step approx. 75% r.h. approx. 7 days
[13] = storage step approx. 95% r.h. approx. 7 days
[14] = after approx. 75 (±5) % r.h. approx. 7 days
[15] = after approx. 95 (±5) % r.h. approx. 7 days
[16] = approx. 75 (±5) % r.h. approx. 7 days, then approx. 4 (±5) % approx. 20 h
[17] = approx. 75 (±5) % r.h. approx. 8.5 days, then approx. 4 (±5) % approx. 6 h
[18] = approx. 95 (±5) % r.h. approx. 7 days, then approx. 4 (±5) % approx. 20 h
[19] = approx. 95 (±5) % r.h. approx. 8.5 days, then approx. 4 (±5) % approx. 6 h

Compound	% pt during [2, 14] [% pt]	Form during [2, 14]	% pt during [2, 15]	Form during [2, 15]	% pt after [2, 16] [% pt]	Form after [2, 16]	% pt [2, 17] [% pt]	Laboratory (percentage change in total weight by weighing) [2, 17]	Form after [2, 17]	% pt after [2, 18]	Form after [2, 18]	% pt [2, 19] [% pt]	Laboratory (percentage change in total weight by weighing) [2, 19]	Form after [2, 19]	Laboratory after ([2]; after 75% r.h. 7 days)	Laboratory after ([2]; after 95% r.h. 7 days) [%]	Laboratory during % [2]	other results
COc1cccc([C@@]2(O)C[C@H](O)CC[C@@H]2CN(C)C)c1 (racemic) [form B, (1RS,3RS,6RS)-6-dimethylaminomethyl-1-(3-methoxyphenyl)-cyclohexane-1,3-diol]																		Change in the physical form on drying ([1]; 68° C. in a drying cabinet in vacuo for 3 days): converted into amorphous material; Change in the physical form on drying ([1]; 13 hours at 40° C. in vacuo): no changes in the physical form were observed; Change in the physical form on drying ([1]; 24 hours at 40° C. in vacuo): no changes in the physical form were observed
COc1cccc(C2(O)CC(O)CCC2CN(C)C)c1 (centres unmarked) [Sample H1, 6-dimethylaminomethyl-1-(3-methoxyphenyl)-1,3-dihydroxy-cyclohexane]																		% pt (middle) [2, 3]: −2.73 % pt; Form middle [2, 3]: form A,; also recorded: form B,; also recorded: form C,; also recorded: form D; % pt (middle) [2, 4]: −4.88 % pt; Form middle [2, 4]: form B; % pt after [2, 5]: 0.53 % pt; Form after [2, 5]: form B,; also recorded: form A; % pt (difference in the moisture content, thermogravimetry, after vs before storage) [2, 6]: −1.22 % pt; Laboratory/% (percentage change in total weight by weighing) [2, 6]: +1.14%; Form after [2, 7]: form B, further; % pt after [2, 8]: −3.84 % pt; Form after [2, 8]: form B; % pt (difference in the moisture content, thermogravimetry) [2, 9]: −4.89 % pt; Laboratory/% (percentage change in total weight by weighing) [2, 9]: +4.99%; Form after [2, 9]: form B, further; Laboratory/% (after) [2, 10]: −1.24%; Laboratory/% (after) [2, 11]: −22.76%; Laboratory/% (middle) [2, 12]: 2.89%; Laboratory/% (middle) [2, 13]: +13.72%
COc1cccc([C@@]2(O)C[C@H](O)CC[C@@H]2CN(C)C)c1 (racemic) [Sample P3, (1RS,3RS,6RS)-6-dimethylaminomethyl-1-(3-methoxyphenyl)-cyclohexane-1,3-diol]	−0.25	form A	+0.21 % pt	form A	−0.33	form A	−0.24	−0.47%	form A	+0.27 % pt	form A	−0.25	−0.39%	form A	−0.75%	−0.04	+0.23%	Laboratory during [2]: 5.33%
COc1cccc(C2(O)CC(O)CCC2CN(C)C)c1 (centres unmarked) [Sample H2, 6-dimethylaminomethyl-1-(3-methoxyphenyl)-1,3-dihydroxy-cyclohexane]																		% pt (difference in the moisture content, thermogravimetry, after vs before storage) [2, 6]: −2.85 % pt; Laboratory/% (percentage change in total weight by weighing) [2, 6]: +2.61%; Form after [2, 7]: form B, further; % pt (difference in the moisture content, thermogravimetry) [2, 9]: −4.95 % pt; Laboratory/% (percentage change in total weight by weighing) [2, 9]: +4.88%; Form after [2, 9]: form B, further
COc1cccc([C@@]2(O)C[C@H](O)CC[C@@H]2CN(C)C)c1 (racemic) [Sample P2, (1RS,3RS,6RS)-6-dimethylaminomethyl-1-(3-methoxyphenyl)-cyclohexane-1,3-diol]	−0.42	form A	−0.24 % pt	form A	−0.44	form A	−0.17	+0.06%	form A	−0.21 % pt	form A	−0.25	+0.02%	form A	+0.08%	−0.60	+0.02%	Laboratory during [2]: +0.52%
COc1cccc(C2(O)CC(O)CCC2CN(C)C)c1 (centres unmarked) [Sample H3, 6-dimethylaminomethyl-1-(3-methoxyphenyl)-1,3-dihydroxy-cyclohexane]																		% pt (middle) [2, 3]: −4.75 % pt; Form middle [2, 3]: form B; % pt (middle) [2, 4]: −2.37 % pt; Form middle [2, 4]: form B; % pt after [2, 5]: 0.46 % pt; Form after [2, 5]: form B; % pt after [2, 8]: −0.49 % pt; Form after [2, 8]: form B; Laboratory/% (after) [2, 10]: +3.68%; Laboratory/% (after) [2, 11]: −9.19%; Laboratory/% (middle) [2, 12]: +0.02%; Laboratory/% (middle) [2, 13]: +4.34%
COc1cccc([C@@]2(O)C[C@H](O)CC[C@@H]2CN(C)C)c1 (racemic) [Sample P1, (1RS,3RS,6RS)-6-dimethylaminomethyl-1-(3-methoxyphenyl)-cyclohexane-1,3-diol]	−0.21	form A	−0.19 % pt	form A	−0.04	form A	−0.05	−0.01%	form A	−0.02 % pt	form A	−0.22	+0.12%	form A	+0.07%	−0.04	−0.08%	Weight loss TG (afterwards) ([2]; after second storage step at ca. 4% atmospheric humidity): −4.38%; Weight loss TG (intermediate) ([2]; after storage at 95% atmospheric humidity approx. 7 days): −4.55%; Weight loss TG (beforehand) ([2]; before storage, thermogravimetry approx. 25-240° C.): −4.36%
